Laboratory results published in the NIST ThermoML archive (doi:10.1016/j.jct.2018.11.004).
Numbers after ± are expanded uncertainties.

Assay: molar heat capacity at saturation pressure
Conditions: Small (less than 1 g) adiabatic calorimetry

CC(C)[C@@H]1CC[C@@H](C)C[C@H]1O [L-menthol]
Conditions	molar heat capacity [J/K/mol]
213.42 K, Crystal 1	178.9 ± 1
215.24 K, Crystal 1	180.2 ± 1
216.36 K, Crystal 1	180.9 ± 1
217.07 K, Crystal 1	181.5 ± 1
218.32 K, Crystal 1	182.5 ± 1
218.89 K, Crystal 1	182.9 ± 1
220.14 K, Crystal 1	183.7 ± 1
220.72 K, Crystal 1	184.2 ± 1
221.96 K, Crystal 1	185.1 ± 1
222.55 K, Crystal 1	185.4 ± 1
223.78 K, Crystal 1	186.5 ± 1
225.6 K, Crystal 1	187.8 ± 1
227.43 K, Crystal 1	189.1 ± 1
229.25 K, Crystal 1	190.5 ± 1
231.07 K, Crystal 1	191.9 ± 1
232.89 K, Crystal 1	193.3 ± 1
234.71 K, Crystal 1	194.7 ± 1
236.53 K, Crystal 1	196.1 ± 1.1
238.35 K, Crystal 1	197.4 ± 1.1
240.18 K, Crystal 1	198.8 ± 1.1
242 K, Crystal 1	200.2 ± 1.1
243.83 K, Crystal 1	201.7 ± 1.1
245.65 K, Crystal 1	203.1 ± 1.1
247.48 K, Crystal 1	204.5 ± 1.1
249.3 K, Crystal 1	206 ± 1.1
251.12 K, Crystal 1	207.5 ± 1.1
252.95 K, Crystal 1	208.9 ± 1.1
254.77 K, Crystal 1	210.4 ± 1.1
256.59 K, Crystal 1	212 ± 1.1
258.41 K, Crystal 1	213.7 ± 1.1
260.23 K, Crystal 1	215.2 ± 1.1
262.05 K, Crystal 1	216.8 ± 1.2
263.88 K, Crystal 1	218.5 ± 1.2
265.7 K, Crystal 1	220.1 ± 1.2
267.52 K, Crystal 1	221.7 ± 1.2
269.34 K, Crystal 1	223.4 ± 1.2
271.17 K, Crystal 1	225.1 ± 1.2
272.99 K, Crystal 1	226.5 ± 1.2
274.82 K, Crystal 1	227.9 ± 1.2
276.64 K, Crystal 1	229.6 ± 1.2
278.46 K, Crystal 1	231.1 ± 1.2
278.81 K, Crystal 1	231.4 ± 1.2
280.29 K, Crystal 1	232.6 ± 1.2
280.63 K, Crystal 1	233 ± 1.2
282.11 K, Crystal 1	234.2 ± 1.2
282.45 K, Crystal 1	234.5 ± 1.2
283.93 K, Crystal 1	235.8 ± 1.2
284.26 K, Crystal 1	236.1 ± 1.2
285.75 K, Crystal 1	237.3 ± 1.3
286.08 K, Crystal 1	237.7 ± 1.3
287.57 K, Crystal 1	239 ± 1.3
287.88 K, Crystal 1	239.5 ± 1.3
289.39 K, Crystal 1	240.8 ± 1.3
289.68 K, Crystal 1	241.3 ± 1.3
290.89 K, Crystal 1	242.4 ± 1.3
291.08 K, Crystal 1	242.5 ± 1.3
291.22 K, Crystal 1	242.6 ± 1.3
291.47 K, Crystal 1	242.9 ± 1.3
291.8 K, Crystal 1	243.3 ± 1.3
292.76 K, Crystal 1	244.5 ± 1.3
293.04 K, Crystal 1	244.4 ± 1.3
293.06 K, Crystal 1	244.7 ± 1.3
293.25 K, Crystal 1	244.8 ± 1.3
293.66 K, Crystal 1	245.4 ± 1.3
294.53 K, Crystal 1	246.2 ± 1.3
294.86 K, Crystal 1	246.6 ± 1.3
294.94 K, Crystal 1	246.6 ± 1.3
295.02 K, Crystal 1	246.7 ± 1.3
295.44 K, Crystal 1	247.2 ± 1.3
296.68 K, Crystal 1	248.4 ± 1.3
296.79 K, Crystal 1	248.6 ± 1.3
296.82 K, Crystal 1	248.6 ± 1.3
298.5 K, Crystal 1	250.6 ± 1.3
298.55 K, Crystal 1	250.5 ± 1.3
298.69 K, Crystal 1	250.9 ± 1.3
312.2 K, Liquid	370.6 ± 1.9
314.15 K, Liquid	373.6 ± 1.9
316.02 K, Liquid	376.5 ± 1.9
317.57 K, Liquid	379.5 ± 1.9
317.87 K, Liquid	379.7 ± 1.9
318.1 K, Liquid	380.3 ± 1.9
318.47 K, Liquid	380.7 ± 2
318.82 K, Liquid	381.4 ± 2
319.28 K, Liquid	381.8 ± 2
319.72 K, Liquid	382.6 ± 2
320.06 K, Liquid	383.3 ± 2
320.34 K, Liquid	383.5 ± 2
320.78 K, Liquid	384.6 ± 2
321.01 K, Liquid	384.9 ± 2
321.31 K, Liquid	385.3 ± 2
321.56 K, Liquid	385.4 ± 2
322.18 K, Liquid	386.6 ± 2
322.55 K, Liquid	386.9 ± 2
323.31 K, Liquid	388.4 ± 2
323.4 K, Liquid	388.2 ± 2
323.45 K, Liquid	388.5 ± 2
323.79 K, Liquid	388.8 ± 2
324.01 K, Liquid	389.3 ± 2
325.28 K, Liquid	391.1 ± 2
325.83 K, Liquid	392 ± 2
325.85 K, Liquid	392.2 ± 2
327.12 K, Liquid	393.8 ± 2
327.67 K, Liquid	394.8 ± 2
328.34 K, Liquid	395.8 ± 2
328.95 K, Liquid	396.4 ± 2
329.49 K, Liquid	397.5 ± 2
330.79 K, Liquid	399.1 ± 2
330.84 K, Liquid	399.3 ± 2
331.3 K, Liquid	400.1 ± 2
332.62 K, Liquid	401.7 ± 2.1
333.11 K, Liquid	402.5 ± 2.1
333.33 K, Liquid	402.6 ± 2.1
334.46 K, Liquid	404.2 ± 2.1
335.81 K, Liquid	406 ± 2.1
336.3 K, Liquid	406.5 ± 2.1
338.14 K, Liquid	408.8 ± 2.1
338.29 K, Liquid	409 ± 2.1
339.98 K, Liquid	411.3 ± 2.1
340.77 K, Liquid	412.1 ± 2.1
341.82 K, Liquid	413.4 ± 2.1
343.25 K, Liquid	415.1 ± 2.1
343.66 K, Liquid	415.8 ± 2.1
345.5 K, Liquid	417.9 ± 2.1
345.72 K, Liquid	418.1 ± 2.1
347.35 K, Liquid	419.8 ± 2.1
348.2 K, Liquid	420.7 ± 2.1
349.19 K, Liquid	421.7 ± 2.2
350.66 K, Liquid	423 ± 2.2
351.04 K, Liquid	423.4 ± 2.2
352.88 K, Liquid	425.1 ± 2.2
353.12 K, Liquid	425.1 ± 2.2
354.73 K, Liquid	426.7 ± 2.2
355.58 K, Liquid	427.2 ± 2.2
356.58 K, Liquid	428.4 ± 2.2
358.04 K, Liquid	429.4 ± 2.2
358.43 K, Liquid	429.7 ± 2.2
360.27 K, Liquid	431.1 ± 2.2
360.49 K, Liquid	431 ± 2.2
362.12 K, Liquid	432.6 ± 2.2
362.94 K, Liquid	432.8 ± 2.2
363.97 K, Liquid	433.8 ± 2.2
365.39 K, Liquid	434.2 ± 2.2
365.82 K, Liquid	435.5 ± 2.2
367.67 K, Liquid	436.2 ± 2.2
367.84 K, Liquid	435.7 ± 2.2
